Drawing on patent US20250243171A1, “QUINAZOLINE COMPOUNDS FOR TREATMENT OF DISEASE” (Arthrosi Therapeutics, Inc., priority 2021, published 2025), this text covers EC50 for 17 compounds.

What all share (assay): EC50 assay: Ba/F3 stable cell proliferation (CCK-8, 72 h)
What all share (format): cell-based

Assay [1] concerns the target T1, Ba/F3 stable cells (Homo sapiens, UniProt P00533, DUP767-769, cells depend on it).
T1 construct: EC50 Ba/F3-EGFR V769-D770insASV; other: Ba/F3-EGFR V769-D770insASV cells, 72 h, CCK-8
As to conditions: Ba/F3-EGFR V769-D770insASV cells. An outline of the steps:
(§1)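 Ba/F3 stable cells were seeded at 4,000 cells/90 μL/well in 96-well plates and held 2 h at 37° C. in 5% CO2, then given 10 μL of serially titrated compound (0.1% DMSO final). After 72 h at 37° C., CCK-8 reagent was added for 4 hours and absorbance read at 450 nm to derive EC50.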

Assay [2] concerns the target T2, Ba/F3 stable cells (Homo sapiens, UniProt P00533, T790M/L858R, cells depend on it).
T2 construct: EC50 Ba/F3-EGFR L858R-T790M; other: Ba/F3-EGFR L858R-T790M cells, 72 h, CCK-8
As to conditions: Ba/F3-EGFR L858R-T790M cells. An outline of the steps: as §1

Assay [3] has as its target T3, Ba/F3 stable cells (Homo sapiens, UniProt P04626, DUP772-775, cells depend on it).
T3 construct: EC50 Ba/F3-HER2 A775-G776insYVMA; other: Ba/F3-HER2 A775-G776insYVMA cells, 72 h, CCK-8
Conditions: Ba/F3-HER2 A775-G776insYVMA cells. The gist of the method: as §1

Assay [4] addresses T4, Ba/F3 stable cells (Homo sapiens, UniProt P00533, DUP771-773, cells depend on it).
T4 construct: EC50 Ba/F3-EGFR H773-V774insNPH; other: Ba/F3-EGFR H773-V774insNPH cells, 72 h, CCK-8
Conditions: Ba/F3-EGFR H773-V774insNPH cells. The gist of the method:
as §1

Assay [5] deals with T5, Ba/F3 stable cells (Homo sapiens, UniProt P00533, DUP768-770, cells depend on it).
T5 construct: EC50 Ba/F3-EGFR D770-N771insSVD; other: Ba/F3-EGFR D770-N771insSVD cells, 72 h, CCK-8
As to conditions: Ba/F3-EGFR D770-N771insSVD cells. The gist of the method: as §1

Assay [6] deals with T6, Ba/F3 stable cells (Homo sapiens, UniProt P00533, INS763FQEA, cells depend on it).
T6 construct: EC50 Ba/F3-EGFR A763-Y764insFQEA; other: Ba/F3-EGFR A763-Y764insFQEA cells, 72 h, CCK-8
Conditions: Ba/F3-EGFR A763-Y764insFQEA cells. The gist of the method: as §1

Structures are written as SMILES. pEC50: −log10 of the molar value.

T1 sequence (P00533 with tags, fused parts or gaps DUP767-769): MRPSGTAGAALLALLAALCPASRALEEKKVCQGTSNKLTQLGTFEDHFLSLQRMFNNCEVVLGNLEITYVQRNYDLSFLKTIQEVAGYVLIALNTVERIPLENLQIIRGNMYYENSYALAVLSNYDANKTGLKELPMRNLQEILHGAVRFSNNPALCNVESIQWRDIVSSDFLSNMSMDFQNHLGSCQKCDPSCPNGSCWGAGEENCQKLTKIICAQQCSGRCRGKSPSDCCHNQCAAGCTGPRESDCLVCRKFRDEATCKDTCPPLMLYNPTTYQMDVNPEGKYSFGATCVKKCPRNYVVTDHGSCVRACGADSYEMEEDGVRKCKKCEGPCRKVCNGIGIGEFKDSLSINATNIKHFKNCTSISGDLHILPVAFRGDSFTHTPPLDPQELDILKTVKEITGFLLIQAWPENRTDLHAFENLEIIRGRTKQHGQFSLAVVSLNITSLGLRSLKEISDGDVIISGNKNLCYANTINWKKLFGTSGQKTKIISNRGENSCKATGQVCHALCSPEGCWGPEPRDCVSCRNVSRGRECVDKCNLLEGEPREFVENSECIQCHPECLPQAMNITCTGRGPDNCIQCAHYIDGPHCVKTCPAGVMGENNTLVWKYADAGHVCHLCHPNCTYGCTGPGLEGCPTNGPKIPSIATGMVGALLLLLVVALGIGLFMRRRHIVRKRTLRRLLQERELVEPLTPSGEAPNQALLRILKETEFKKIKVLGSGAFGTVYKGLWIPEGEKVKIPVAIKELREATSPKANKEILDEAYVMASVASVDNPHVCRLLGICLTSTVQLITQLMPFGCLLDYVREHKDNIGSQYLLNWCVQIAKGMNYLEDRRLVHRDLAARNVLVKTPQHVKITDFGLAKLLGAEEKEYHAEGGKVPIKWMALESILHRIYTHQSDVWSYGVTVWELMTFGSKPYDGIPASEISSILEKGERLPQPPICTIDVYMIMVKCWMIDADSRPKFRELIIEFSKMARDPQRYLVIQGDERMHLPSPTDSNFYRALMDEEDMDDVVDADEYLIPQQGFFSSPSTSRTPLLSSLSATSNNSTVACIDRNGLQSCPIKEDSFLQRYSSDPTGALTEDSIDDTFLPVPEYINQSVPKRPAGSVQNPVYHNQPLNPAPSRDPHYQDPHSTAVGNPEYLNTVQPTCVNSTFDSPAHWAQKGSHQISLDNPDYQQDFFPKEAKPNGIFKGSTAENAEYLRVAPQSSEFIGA
T2 sequence (P00533 whole entry T790M/L858R): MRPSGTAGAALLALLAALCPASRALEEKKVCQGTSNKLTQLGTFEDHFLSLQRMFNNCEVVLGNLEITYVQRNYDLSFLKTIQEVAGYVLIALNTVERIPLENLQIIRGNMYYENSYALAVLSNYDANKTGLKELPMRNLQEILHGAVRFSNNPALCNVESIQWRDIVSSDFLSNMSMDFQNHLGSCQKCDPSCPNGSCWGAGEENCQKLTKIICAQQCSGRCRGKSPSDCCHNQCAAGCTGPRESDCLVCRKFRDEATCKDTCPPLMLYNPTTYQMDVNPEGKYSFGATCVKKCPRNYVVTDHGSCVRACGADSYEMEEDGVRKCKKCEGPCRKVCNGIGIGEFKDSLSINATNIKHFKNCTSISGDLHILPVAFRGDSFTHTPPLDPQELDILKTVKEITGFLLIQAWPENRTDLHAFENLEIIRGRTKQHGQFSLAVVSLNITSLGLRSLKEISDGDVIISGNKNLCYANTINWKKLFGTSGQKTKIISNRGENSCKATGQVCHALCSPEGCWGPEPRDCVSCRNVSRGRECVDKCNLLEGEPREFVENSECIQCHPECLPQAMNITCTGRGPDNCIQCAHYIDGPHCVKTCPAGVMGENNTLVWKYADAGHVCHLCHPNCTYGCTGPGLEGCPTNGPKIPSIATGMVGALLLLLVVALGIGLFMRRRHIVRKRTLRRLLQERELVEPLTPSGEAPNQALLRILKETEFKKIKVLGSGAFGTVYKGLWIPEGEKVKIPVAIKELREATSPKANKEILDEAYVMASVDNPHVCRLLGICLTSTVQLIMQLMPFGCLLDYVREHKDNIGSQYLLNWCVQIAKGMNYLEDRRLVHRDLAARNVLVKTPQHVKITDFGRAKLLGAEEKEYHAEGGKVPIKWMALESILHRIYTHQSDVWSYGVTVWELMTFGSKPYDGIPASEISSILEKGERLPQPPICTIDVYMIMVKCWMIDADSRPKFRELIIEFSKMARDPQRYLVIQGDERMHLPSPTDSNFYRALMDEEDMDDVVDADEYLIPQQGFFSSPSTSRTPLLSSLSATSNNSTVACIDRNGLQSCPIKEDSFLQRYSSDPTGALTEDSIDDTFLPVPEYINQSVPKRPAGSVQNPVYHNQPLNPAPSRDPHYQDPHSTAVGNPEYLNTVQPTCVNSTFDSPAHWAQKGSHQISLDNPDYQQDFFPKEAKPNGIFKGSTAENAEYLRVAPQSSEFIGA
T6 sequence (P00533 with tags, fused parts or gaps INS763FQEA): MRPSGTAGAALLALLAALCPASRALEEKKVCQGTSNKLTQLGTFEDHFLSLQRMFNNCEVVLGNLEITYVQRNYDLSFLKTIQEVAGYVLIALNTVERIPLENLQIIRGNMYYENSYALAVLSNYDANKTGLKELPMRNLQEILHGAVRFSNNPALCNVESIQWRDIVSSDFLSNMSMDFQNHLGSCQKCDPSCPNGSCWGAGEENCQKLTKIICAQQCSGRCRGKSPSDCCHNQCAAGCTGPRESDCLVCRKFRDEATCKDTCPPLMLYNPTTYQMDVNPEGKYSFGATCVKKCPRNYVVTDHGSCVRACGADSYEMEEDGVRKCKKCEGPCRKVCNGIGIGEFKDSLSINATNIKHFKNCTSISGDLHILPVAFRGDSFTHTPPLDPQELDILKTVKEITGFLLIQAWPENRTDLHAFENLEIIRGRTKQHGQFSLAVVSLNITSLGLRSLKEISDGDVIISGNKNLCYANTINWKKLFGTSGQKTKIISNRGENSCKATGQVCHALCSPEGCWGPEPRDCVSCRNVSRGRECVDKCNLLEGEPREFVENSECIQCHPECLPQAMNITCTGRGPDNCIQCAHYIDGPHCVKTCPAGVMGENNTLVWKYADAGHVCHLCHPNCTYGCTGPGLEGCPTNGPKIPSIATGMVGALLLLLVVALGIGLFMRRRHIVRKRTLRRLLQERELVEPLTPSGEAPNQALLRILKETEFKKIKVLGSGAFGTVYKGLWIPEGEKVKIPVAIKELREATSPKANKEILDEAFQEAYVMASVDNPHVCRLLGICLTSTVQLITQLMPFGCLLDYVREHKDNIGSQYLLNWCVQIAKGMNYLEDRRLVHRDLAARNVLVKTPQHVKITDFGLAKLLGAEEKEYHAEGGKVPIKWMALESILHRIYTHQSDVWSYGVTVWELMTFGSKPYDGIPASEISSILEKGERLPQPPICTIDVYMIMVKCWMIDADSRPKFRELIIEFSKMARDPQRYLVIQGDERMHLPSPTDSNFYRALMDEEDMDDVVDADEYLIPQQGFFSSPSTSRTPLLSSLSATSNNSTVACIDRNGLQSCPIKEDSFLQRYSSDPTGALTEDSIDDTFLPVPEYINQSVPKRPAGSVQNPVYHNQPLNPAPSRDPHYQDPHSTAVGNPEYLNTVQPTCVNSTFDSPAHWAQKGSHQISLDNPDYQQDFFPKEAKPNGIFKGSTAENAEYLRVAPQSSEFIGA
T3 sequence (P04626 with tags, fused parts or gaps DUP772-775): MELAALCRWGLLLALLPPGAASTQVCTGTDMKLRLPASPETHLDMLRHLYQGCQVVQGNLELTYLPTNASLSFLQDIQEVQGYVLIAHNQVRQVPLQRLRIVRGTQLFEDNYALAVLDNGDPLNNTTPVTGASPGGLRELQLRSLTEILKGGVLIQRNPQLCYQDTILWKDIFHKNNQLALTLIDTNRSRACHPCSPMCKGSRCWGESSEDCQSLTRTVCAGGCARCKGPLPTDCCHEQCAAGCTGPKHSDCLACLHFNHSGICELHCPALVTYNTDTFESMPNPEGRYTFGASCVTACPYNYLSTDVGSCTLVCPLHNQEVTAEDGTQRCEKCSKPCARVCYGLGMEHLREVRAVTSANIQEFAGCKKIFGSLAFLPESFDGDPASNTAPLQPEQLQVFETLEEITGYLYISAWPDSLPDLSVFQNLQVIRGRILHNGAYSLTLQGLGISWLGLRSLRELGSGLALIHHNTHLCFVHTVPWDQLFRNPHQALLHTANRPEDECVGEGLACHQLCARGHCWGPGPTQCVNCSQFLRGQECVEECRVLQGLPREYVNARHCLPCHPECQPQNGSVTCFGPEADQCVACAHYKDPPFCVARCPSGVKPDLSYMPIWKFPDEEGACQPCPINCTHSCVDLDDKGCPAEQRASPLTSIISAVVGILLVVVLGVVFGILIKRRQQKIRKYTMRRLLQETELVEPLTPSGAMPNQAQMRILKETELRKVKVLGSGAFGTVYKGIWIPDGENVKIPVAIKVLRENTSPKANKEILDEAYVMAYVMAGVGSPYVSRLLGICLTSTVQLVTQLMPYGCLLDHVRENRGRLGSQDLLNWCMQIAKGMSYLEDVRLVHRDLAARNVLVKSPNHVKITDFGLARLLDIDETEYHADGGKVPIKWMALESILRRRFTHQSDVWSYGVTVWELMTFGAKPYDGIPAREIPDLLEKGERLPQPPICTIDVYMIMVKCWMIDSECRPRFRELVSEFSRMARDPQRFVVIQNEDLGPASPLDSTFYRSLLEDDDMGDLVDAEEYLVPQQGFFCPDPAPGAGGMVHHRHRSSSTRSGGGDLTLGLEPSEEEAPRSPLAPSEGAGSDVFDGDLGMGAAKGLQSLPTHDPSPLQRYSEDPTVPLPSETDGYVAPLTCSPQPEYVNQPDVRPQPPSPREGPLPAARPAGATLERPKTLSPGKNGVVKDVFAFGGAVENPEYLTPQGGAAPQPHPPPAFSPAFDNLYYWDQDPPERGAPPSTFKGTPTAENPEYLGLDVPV

As to `COc1cc2ncnc(Nc3ccc(Cl)c(Cl)c3F)c2cc1OC1CC(NC(=O)/C=C/CN(C)C)C1` (stereo not drawn) [Compound 42, (E)-N-(3-((4-((3,4-dichloro-2-fluorophenyl)amino)-7-methoxyquinazolin-6-yl)oxy)cyclobutyl)-4-(dimethylamino)but-2-enamide], the pEC50 in assay [1] is no less than 6.70; in assay [2] it was less than 6.00; in assay [3], 6.00 to 6.70; in assay [4] it was 6.00 to 6.70; in assay [5], 6.00 to 6.70; in assay [6], no less than 6.70.

Regarding `CC#CC(=O)NC1CC(Oc2cc3c(Nc4ccc(Cl)c(Cl)c4F)ncnc3cc2OC)C1` (stereo not drawn) [Compound 43, N-(3-((4-((3,4-dichloro-2-fluorophenyl)amino)-7-methoxyquinazolin-6-yl)oxy)cyclobutyl)but-2-ynamide], the pEC50 in assay [1] is 6.00 to 6.70; in assay [2] it was less than 6.00; in assay [3], 6.00 to 6.70; in assay [4] it was less than 6.00; in assay [5], 6.00 to 6.70; in assay [6], no less than 6.70.

Regarding `C#CC(=O)N[C@H]1C[C@H](Oc2cc3c(Nc4cccc5c4CCC5)ncnc3cc2OC)C1` [Compound 44, N-((1r,3r)-3-((4-((2,3-dihydro-1H-inden-4-yl)amino)-7-methoxyquinazolin-6-yl)oxy)cyclobutyl)propiolamide], the pEC50 in assay [1] is no less than 6.70; in assay [2], 6.00 to 6.70; in assay [3], 6.00 to 6.70; in assay [4], no less than 6.70; in assay [5], 6.00 to 6.70; in assay [6] it was no less than 6.70.

With `C#CC(=O)N[C@H]1C[C@@H](Oc2cc3c(Nc4cccc5c4CCC5)ncnc3cc2OC)C1` [Compound 45, N-((1s,3s)-3-((4-((2,3-dihydro-1H-inden-4-yl)amino)-7-methoxyquinazolin-6-yl)oxy)cyclobutyl)propiolamide], the pEC50 was less than 6.00 in assay [1]; less than 6.00 in assay [2]; less than 6.00 in assay [3]; less than 6.00 in assay [4]; less than 6.00 in assay [5]; no less than 6.70 in assay [6].

Turning to `C#CC(=O)NC1CC(Oc2cc3c(Nc4cccc5ccccc45)ncnc3cc2OC)C1` (stereo not drawn) [Compound 46, N-(3-((7-methoxy-4-(naphthalen-1-ylamino)quinazolin-6-yl)oxy)cyclobutyl)propiolamide], the pEC50 in assay [1] was no less than 6.70; in assay [2], no less than 6.70; in assay [3], no less than 6.70; in assay [4] it was no less than 6.70; in assay [5] it was 6.00 to 6.70; in assay [6] it was no less than 6.70.

In the case of `C#CC(=O)N[C@H]1C[C@@H](Oc2cc3c(Nc4cccc5ccccc45)ncnc3cc2OC)C1` [Compound 47, N-((1s,3s)-3-((7-methoxy-4-(naphthalen-1-ylamino)quinazolin-6-yl)oxy)cyclobutyl)propiolamide], the negative-log EC50 (pEC50) in assay [1] was no less than 6.70; in assay [2] it was no less than 6.70; in assay [3] it was 6.00 to 6.70; in assay [4], no less than 6.70; in assay [5], no less than 6.70; in assay [6] it was no less than 6.70.

For the compound `C#CC(=O)N[C@H]1C[C@H](Oc2cc3c(Nc4ccc5ccccc5c4)ncnc3cc2OC)C1` [Compound 48, N-((1r,3r)-3-((7-methoxy-4-(naphthalen-2-ylamino)quinazolin-6-yl)oxy)cyclobutyl)propiolamide], the pEC50 in assay [1] is no less than 6.70; in assay [2], no less than 6.70; in assay [3], 6.00 to 6.70; in assay [4], 6.00 to 6.70; in assay [5] it was 6.00 to 6.70; in assay [6] it was no less than 6.70.

Regarding `C#CC(=O)NC1CC(Oc2cc3c(Nc4ccc(Cl)c(Cl)c4F)ncnc3cc2OC)C1` (stereo not drawn) [Compound 49, N-(3-((4-((3,4-dichloro-2-fluorophenyl)amino)-7-methoxyquinazolin-6-yl)oxy)cyclobutyl)propiolamide], the pEC50 in assay [1] was no less than 6.70; in assay [2], no less than 6.70; in assay [3] it was 6.00 to 6.70; in assay [4], no less than 6.70; in assay [5], no less than 6.70; in assay [6], no less than 6.70.

Regarding `C=C(F)C(=O)N1CCC(Oc2cc3c(Nc4ccc(Cl)c(Cl)c4F)ncnc3cc2OC)CC1` [Compound 50, 1-(4-((4-((3,4-dichloro-2-fluorophenyl)amino)-7-methoxyquinazolin-6-yl)oxy)piperidin-1-yl)-2-fluoroprop-2-en-1-one], the pEC50 in assay [1] was no less than 6.70; in assay [2], less than 6.00; in assay [3], 6.00 to 6.70; in assay [4], 6.00 to 6.70; in assay [5], less than 6.00; in assay [6], no less than 6.70.

For `C#CC(=O)N1CCC(Oc2cc3c(Nc4ccc(Cl)c(Cl)c4F)ncnc3cc2OC)CC1` [Compound 52, 1-(4-((4-((3,4-dichloro-2-fluorophenyl)amino)-7-methoxyquinazolin-6-yl)oxy)piperidin-1-yl)prop-2-yn-1-one], the pEC50 in assay [1] was no less than 6.70; in assay [2], no less than 6.70; in assay [3] it was 6.00 to 6.70; in assay [4], no less than 6.70; in assay [5] it was no less than 6.70; in assay [6], no less than 6.70.

As for `C#CC(=O)N1CCC(Oc2cc3c(Nc4ccc5ccccc5c4)ncnc3cc2OC)CC1` [Compound 53, 1-(4-((7-methoxy-4-(naphthalen-2-ylamino)quinazolin-6-yl)oxy)piperidin-1-yl)prop-2-yn-1-one], the pEC50 in assay [1], in assay [2], in assay [3], in assay [4], in assay [5] and in assay [6] was no less than 6.70 in each case.

For the compound `C#CC(=O)N1CCC(Oc2cc3c(Nc4cccc5ccccc45)ncnc3cc2OC)CC1` [Compound 54, 1-(4-((7-methoxy-4-(naphthalen-1-ylamino)quinazolin-6-yl)oxy)piperidin-1-yl)prop-2-yn-1-one], the pEC50 in assay [1], in assay [2], in assay [3], in assay [4], in assay [5] and in assay [6] was no less than 6.70 each time.

Regarding `C#CC(=O)N1C2CCC1CC(Oc1cc3c(Nc4cccc5c4CCC5)ncnc3cc1OC)C2` (stereo not drawn) [Compound 56, 1-(3-((4-((2,3-dihydro-1H-inden-4-yl)amino)-7-methoxyquinazolin-6-yl)oxy)-8-azabicyclo[3.2.1]octan-8-yl)prop-2-yn-1-one], the pEC50 was no less than 6.70 in assay [1]; 6.00 to 6.70 in assay [2]; 6.00 to 6.70 in assay [3]; no less than 6.70 in assay [4]; 6.00 to 6.70 in assay [5]; no less than 6.70 in assay [6].

As for `C#CC(=O)N1C2CCCC1CC(Oc1cc3c(Nc4cccc5ccccc45)ncnc3cc1OC)C2` (stereo not drawn) [Compound 57, 1-(3-((7-methoxy-4-(naphthalen-1-ylamino)quinazolin-6-yl)oxy)-9-azabicyclo[3.3.1]nonan-9-yl)prop-2-yn-1-one], the pEC50 in assay [1], in assay [2], in assay [3], in assay [4], in assay [5] and in assay [6] was no less than 6.70 in each case.

On to `C#CC(=O)N1C2CCCC1CC(Oc1cc3c(Nc4ccc5ccccc5c4)ncnc3cc1OC)C2` (stereo not drawn) [Compound 58, 1-(3-((7-methoxy-4-(naphthalen-2-ylamino)quinazolin-6-yl)oxy)-9-azabicyclo[3.3.1]nonan-9-yl)prop-2-yn-1-one], for which the pEC50 in assay [1] was no less than 6.70; in assay [2] it was no less than 6.70; in assay [3] it was no less than 6.70; in assay [4], no less than 6.70; in assay [5], 6.00 to 6.70; in assay [6], no less than 6.70.

`C#CC(=O)N1C2CCC1CC(Oc1cc3c(Nc4ccc5ccccc5c4)ncnc3cc1OC)C2` (stereo not drawn) [Compound 59, 1-(3-((7-methoxy-4-(naphthalen-2-ylamino)quinazolin-6-yl)oxy)-8-azabicyclo[3.2.1]octan-8-yl)prop-2-yn-1-one]: the negative-log EC50 (pEC50) is no less than 6.70 in assay [1]; no less than 6.70 in assay [2]; 6.00 to 6.70 in assay [3]; no less than 6.70 in assay [4]; 6.00 to 6.70 in assay [5]; no less than 6.70 in assay [6].

Regarding `C#CC(=O)N1C2CCC1CC(Oc1cc3c(Nc4cccc5ccccc45)ncnc3cc1OC)C2` (stereo not drawn) [Compound 60, 1-(3-((7-methoxy-4-(naphthalen-1-ylamino)quinazolin-6-yl)oxy)-8-azabicyclo[3.2.1]octan-8-yl)prop-2-yn-1-one], the pEC50 was no less than 6.70 in assay [1]; no less than 6.70 in assay [2]; 6.00 to 6.70 in assay [3]; no less than 6.70 in assay [4]; 6.00 to 6.70 in assay [5]; no less than 6.70 in assay [6].

The term pEC50 denotes the EC50 on a negative log10 scale, so that one unit is a factor of ten. The low end stands for a large EC50, the high end for a small EC50.
